Converted amounts (≈) assume the structure as drawn. “And” between values parts separate entries of the source, which are not always exact repeats. Equal values may be shown once. Blank lines part the entries; values can stand above or below the compound they belong to.
Key:
Assay in all cases: ≥ marks a high value that may be exact or a test limit, other limits are often not marked, values filed in µg/mL are converted to µM
[1] = system: Aspergillus fumigatus
[2] = system: Fusarium culmorum
[3] = system: Fusarium oxysporum
[4] = system: Saccharomyces cerevisiae
[5] = system: Staphylococcus aureus
[6] = system: Trichoderma viride
[7] = system: Trichophyton mentagrophytes
[8] = system: Acinetobacter calcoaceticus
[9] = system: Bacillus cereus
[10] = system: Bacillus pumilus
[11] = system: Candida albicans ATCC 2002
[12] = system: Escherichia coli ATCC 25922
[13] = system: Pseudomonas aeruginosa
[14] = system: Shigella dysenteriae
[15] = system: Staphylococcus aureus ATCC 2592
[16] = system: Bacillus subtilis ATCC 23857
[17] = system: Bacillus subtilis CCT 2576
[18] = system: Bacillus subtilis
[19] = system: Candida albicans ATCC 14053
[20] = system: Candida glabrata ATCC 2001
[21] = system: Candida krusei ATCC 6258
[22] = system: Candida parapsilosis ATCC 22019
[23] = system: Candida tropicalis ATCC 750
[24] = system: Cronobacter sakazakii ATCC 29544
[25] = system: Escherichia coli ML-35
[26] = system: Escherichia coli
[27] = system: Klebsiella pneumoniae ATCC 700603
[28] = system: Klebsiella pneumoniae
[29] = system: Pseudomonas aeruginosa ATCC 15422
[30] = system: Pseudomonas aeruginosa ATCC 27853
[31] = system: Salmonella typhimurium
[32] = system: Staphylococcus aureus ATCC 29213
[33] = system: Staphylococcus aureus ATCC 6538
[34] = system: Staphylococcus epidermidis ATCC 12228
[35] = system: Staphylococcus epidermidis

MIC [1]: 17.7 µM (≈ 72.4 µg/mL)
MIC [2]: 2.21 µM (≈ 9.04 µg/mL)
MIC [3]: 4.42 µM (≈ 18.1 µg/mL)
MIC [4]: ≥ 35.4 µM
MIC [5]: 1.1 µM (≈ 4.52 µg/mL)
MIC [6]: 4.42 µM (≈ 18.1 µg/mL)
MIC [7]: ≥ 35.4 µM
SMILES: CC[C@H](C)[C@@H]1NC(=O)[C@@H]2CSSC[C@@H](C(=O)N[C@@H](CCCN=C(N)N)C(=O)N[C@@H](CCCN=C(N)N)C(=O)O)NC(=O)[C@H]([C@@H](C)O)NC(=O)[C@@H]3CSSC[C@H](NC(=O)[C@H](C)NC(=O)[C@H](C)NC(=O)[C@H](Cc4cnc[nH]4)NC(=O)CNC(=O)[C@H](C(C)C)NC(=O)CNC(=O)[C@H](Cc4ccccc4)NC(=O)[C@H](C)NC(=O)[C@H](CO)NC(=O)[C@H](CC(C)C)NC(=O)[C@H](CC(C)C)NC(=O)[C@H](CC(=O)O)NC(=O)[C@@H](NC(=O)[C@@H](NC(=O)[C@H](C)N)[C@@H](C)O)CSSC[C@H](NC(=O)[C@H](Cc4ccc(O)cc4)NC(=O)CNC(=O)CNC(=O)[C@H](CCCN=C(N)N)NC(=O)[C@H](Cc4ccc(O)cc4)NC(=O)CNC(=O)[C@H](Cc4cnc[nH]4)NC(=O)CNC1=O)C(=O)N[C@@H](CC(N)=O)C(=O)N[C@@H](CO)C(=O)N[C@@H](CCCCN)C(=O)N[C@@H](C)C(=O)N[C@@H](C(C)C)C(=O)N3)C(=O)N[C@@H](C)C(=O)N[C@@H](C)C(=O)N[C@@H](Cc1cnc[nH]1)C(=O)N2 [ATCDLLSAFGVGHAACAAHCIGHGYRGGYCNSKAVCTCRR]

MIC [8]: 8.72 µM (≈ 15 µg/mL)
MIC [9]: 8.72 µM (≈ 15 µg/mL)
MIC [10]: 2.91 µM (≈ 5 µg/mL)
MIC [11]: 0.726 µM (≈ 1.25 µg/mL)
MIC [12]: 0.726 µM (≈ 1.25 µg/mL)
MIC [13]: 2.91 µM (≈ 5 µg/mL)
MIC [14]: 2.91 µM (≈ 5 µg/mL)
MIC [15]: 0.726 µM (≈ 1.25 µg/mL)
SMILES: CC[C@H](C)[C@H](NC(=O)[C@@H]1CCCN1C(=O)[C@H](Cc1ccccc1)NC(=O)[C@@H](N)Cc1ccccc1)C(=O)N[C@H](C(=O)NCC(=O)N[C@@H](CCCCN)C(=O)N[C@@H](CC(C)C)C(=O)N[C@@H](CC(C)C)C(=O)N[C@@H](Cc1ccccc1)C(=O)NCC(=O)N[C@@H](CC(C)C)C(=O)N[C@@H](CO)C(=O)NCC(=O)N[C@@H](CC(C)C)C(=O)N[C@@H](CC(C)C)C(N)=O)C(C)C [FFPIVGKLLFGLSGLL]

MIC [16]: 8 µM and 4 µM
MIC [17]: 2.42 µM (≈ 4 µg/mL)
MIC [18]: 7.55 µM (≈ 12.5 µg/mL)
MIC [19]: 8 µM (≈ 13.2 µg/mL)
MIC [20]: 8 µM (≈ 13.2 µg/mL)
MIC [21]: 8 µM (≈ 13.2 µg/mL)
MIC [22]: ≥ 64 µM
MIC [23]: 8 µM (≈ 13.2 µg/mL)
MIC [24]: ≥ 64 µM
MIC [25]: ≥ 32 µM
MIC [26]: 45.3 µM (≈ 75 µg/mL)
MIC [27]: 64 µM (≈ 106 µg/mL)
MIC [28]: 22.7 µM (≈ 37.5 µg/mL)
MIC [29]: 4.83 µM (≈ 8 µg/mL)
MIC [30]: 128 µM (≈ 212 µg/mL)
MIC [13]: > 60.4 µM
MIC [31]: ≥ 60.4 µM
MIC [14]: ≥ 45.3 µM
MIC [32]: 32 µM (≈ 52.9 µg/mL)
MIC [33]: 9.06 µM (≈ 15 µg/mL)
MIC [5]: 11.4 µM (≈ 18.8 µg/mL)
MIC [34]: 32 µM and > 16 µM
MIC [35]: ≥ 60.4 µM
SMILES: CC[C@H](C)[C@H](N)C(=O)N[C@@H](CC(=O)O)C(=O)N[C@@H](Cc1c[nH]c2ccccc12)C(=O)N[C@@H](CCCCN)C(=O)N[C@@H](CCCCN)C(=O)N[C@@H](CC(C)C)C(=O)N[C@@H](CC(C)C)C(=O)N[C@@H](CC(=O)O)C(=O)N[C@@H](C)C(=O)N[C@@H](C)C(=O)N[C@@H](CCCCN)C(=O)N[C@@H](CCC(N)=O)C(=O)N[C@H](C(=O)N[C@@H](CC(C)C)C(N)=O)[C@@H](C)CC [IDWKKLLDAAKQIL]

— DBAASP
